From ChEMBL document CHEMBL4325849, “Identification of potential antivirulence agents by substitution-oriented screening for inhibitors of Streptococcus pyogenes sortase A” (Eur J Med Chem, 2019) come the findings set out here.

Activity calls are given as the source filed them. The calls are words filed in the database; no cut-off is given here.

For the first series, the system named is Streptococcus pyogenes. Kind of series: Inhibition of Streptococcus pyogenes SrtA deltaN81 mutant expressed in Escherichia coli BL21(DE3) at 100 uM using Abz-LPETA-Dap(Dnp) as substrate preincubated for 10 mins followed by substrate addition measured every min for 2.5 hrs by fluorimetric assay relative to control.
For orientation: inhibition means the change of the read-out against control, counted positive when it falls. Turning to `NNC(=O)c1ccnc(C(=O)NN)c1`, the inhibition came to 3%.
`COc1ccc2[nH]cc(CCNC(C)=O)c2c1`: the inhibition was 16%.
With `CC(=O)NCCc1c[nH]c2ccc(O)cc12`, the inhibition was 10.8%.
On to `CCOC(=O)c1[nH]c2cc(Cl)ccc2c1C=O`, for which the inhibition is 25.7%.
Same read-out and setting: for `O=C(O)c1cc2cc(Cl)ccc2[nH]1` the value was 9.1%; for `O=C(O)c1[nH]c2cc(Cl)ccc2c1C(=O)Cc1ccc(Cl)cc1`, 28.3%.
Same read-out and setting: for `O=Cc1c[nH]c2ccccc12` the value was 1.5%; for `COc1ccc(CCNC(=O)c2cnn(-c3ccccc3)c2N)cc1OC`, 4.6%; for `NC(Cc1c[nH]c2ccccc12)C(=O)O` (stereo not drawn), 5.5%.
Regarding `COC(=O)c1cc2ccc(Cl)cc2[nH]1`, the inhibition stood at 28.2%.
The same measure, in the same setting: for `Nc1c(C(=O)NCC(O)c2ccccc2)cnn1-c1ccccc1` (stereo not drawn) the value was 35.4%; for `CCOC(=O)c1[nH]c2cc(Cl)ccc2c1N`, 12.8%; for `Nc1[nH]c2cc(Cl)ccc2c1C(=O)N1CCOCC1`, 91.6%.
Same read-out and setting: for `O=C1CCN2c3ccccc3Sc3ccc(Cl)c1c32` the value was 11.1%; for `Oc1ccc2ncccc2c1`, 115%; for `O=C(O)c1cccs1`, 1.4%.
The same measure, in the same setting: for `O=c1cc[nH]c(=O)[nH]1` the value was 2.7%.
In the case of `CC(C)NCC(O)COc1cccc2ccccc12` (stereo not drawn), the inhibition was -4.2%.
Same read-out and setting: for `Nc1ncncc1C=O` the value was 20.7%; for `COC(=O)c1cc2ccccc2[nH]1`, 5.1%.
On the same count and under the same terms, the value for `CCC(=O)N1CCN(c2ncccn2)CC1` was 11.6%.
On the same count and under the same terms, for `O=C(O)c1ccc2ccccc2n1` the value was 23.1%.
With `COc1cc(NS(=O)(=O)c2ccc(N)cc2)ncn1`, the inhibition came out at 12%.
Still for that read-out and setting: the value for `O=Cc1c[nH]c2cc(Cl)ccc12` was 6.4%.
The same measure, in the same setting: the value for `O=C(O)Cc1c[nH]c2ccccc12` was 8.6%; that for `O=Cc1ccc2[nH]ccc2c1` was 11.3%.
Still for that read-out and setting: the value for `Nc1[nH]c2cc(Cl)ccc2c1C(=O)NCCc1ccc(Cl)cc1` was 91.9%; that for `COc1ccc2[nH]cc(CCN)c2c1` was -1.9%; that for `Nc1c(C(=O)N2CCOCC2)cnn1Cc1ccccc1` was 1%.
As to `CCOC(=O)c1[nH]c2cc(Cl)ccc2c1C(=O)O`, the inhibition turned out to be 26.3%.
Still for that read-out and setting: for `O=Cc1c[nH]c2ccc(Cl)cc12` the value was 12.3%; for `CCOC(=O)c1[nH]c2cc(Cl)ccc2c1/C=N/c1ccccc1`, 3.7%; for `N#CCC(=O)c1c[nH]c2cc(F)ccc12`, 10.7%.
With `CCOC(=O)c1cc2ccccc2[nH]1`, the inhibition amounted to 16.4%.
For `CCOC(=O)NCCc1c[nH]c2ccc(OC)cc12`, the inhibition was found to be 11.7%.
Regarding `Nc1ncccn1`, the inhibition turned out to be 7.5%.
As to `O=Cc1nc2ccc(Cl)cc2[nH]1`, the inhibition was determined as 19.9%.
Turning to `O=C(O)CCC(=O)c1cccs1`, the inhibition amounted to 9.8%.
Still for that read-out and setting: the value for `O=C(O)CCC(=O)c1ccc2ccccc2c1` was 86.6%; that for `CCCN1CCOC2c3c(ccc4[nH]ccc34)OCC21` (stereo not drawn) was 13.4%.
On the same count and under the same terms, for `COc1cccc2c3c(ccc12)NC(=O)CC3` the value was 54.2%; for `CCOC(=O)c1[nH]c2cc(Cl)ccc2c1C#Cc1ccccc1`, 118%.
On the same count and under the same terms, for `CC(C(=O)O)c1ccc2cc(OS(C)(=O)=O)ccc2c1` (stereo not drawn) the value was 17%; for `Cn1c(=O)c2[nH]cnc2n(C)c1=O`, 2.3%; for `O=C(O)c1cc2ccccc2[nH]1`, 4.5%.
As to `O=[N+]([O-])c1cccc2[nH]ccc12`, the inhibition came to 21.2%.
For the compound `CC(=O)NCCc1c[nH]cn1`, the inhibition came out at 3.8%.
The same measure, in the same setting: the value for `O=C(c1cccs1)N1CCN(c2ncccn2)CC1` was 10.2%.
Still for that read-out and setting: for `CCOC(=O)c1cc(-c2ccccc2)c2cccc(O)c2c1` the value was 60.2%.
As to `CCOC(=O)c1c(C=O)c(C)n(-c2ccccc2)c1C`, the inhibition came to 2.9%.
Still for that read-out and setting: for `COc1ccc(C(O)c2[nH]c3ccccc3c2CCN)cc1` (stereo not drawn) the value was 60.8%.
Same read-out and setting: the value for `O=C(O)CCC(=O)c1c(C(=O)O)[nH]c2cc(Cl)ccc12` was 15.1%.
With `Cc1ccc(S(=O)(=O)/N=C/c2cc3ccc(Cl)cc3[nH]2)cc1`, the inhibition came to 8.8%.
Consider `Nc1ncccc1CO`, for which the inhibition is -0.5%.
Same read-out and setting: for `COC(=O)c1ccnc(C(=O)OC)c1` the value was 5.5%; for `Nc1[nH]c2ccccc2c1C(=O)NC1CC1`, 29.2%; for `CCOC(=O)c1cc2ccc(Cl)cc2[nH]1`, 15%.
The same measure, in the same setting: the value for `CCOC(=O)c1[nH]c2cc(Cl)ccc2c1C(=O)CCC(=O)OC` was 23.8%; that for `NCCc1c[nH]c2ccccc12` was -5.3%; that for `O=C(O)Cc1c[nH]cn1` was -7.6%.
The same measure, in the same setting: the value for `Nc1[nH]c2cc(C(F)(F)F)ccc2c1C(=O)NC1CCCCC1` was -6.3%; that for `Cn1c(C(=O)O)cc2ccccc21` was 8.2%.
Take `Cn1c2c(c3ccccc31)C(=O)NCC2`: the inhibition worked out at 20.5%.
Same read-out and setting: the value for `c1ccc2c3c([nH]c2c1)CNCC3` was 10.1%.
Still for that read-out and setting: the value for `O=Cc1ccc[nH]1` was 3.2%; that for `Nc1nccc(O)n1` was 14.5%; that for `CCC(=O)c1cccs1` was 0.1%.
Consider `Nc1ccc(S(=O)(=O)Nc2ccccn2)cc1`, for which the inhibition stood at 3.8%.
As for `O=C(O)c1cc2ccccc2s1`, the inhibition was 4.5%.
For `O=c1c2cc3cc(Cl)ccc3nc2ncn1N1CCCCC1`, the inhibition came out at 42.2%.
With `Nc1[nH]c2ccccc2c1C(=O)NCCc1ccc(Cl)cc1Cl`, the inhibition turned out to be 54.8%.

A further series deals with Streptococcus pyogenes. Briefly: Inhibition of Streptococcus pyogenes SrtA deltaN81 mutant expressed in Escherichia coli BL21(DE3) at 10 uM using Abz-LPETA-Dap(Dnp) as substrate preincubated for 10 mins followed by substrate addition measured every min for 2.5 hrs by fluorimetric assay relative to control.
In the case of `Nc1[nH]c2cc(Cl)ccc2c1C(=O)N1CCOCC1`, the inhibition was over 50%.
`Nc1[nH]c2cc(Cl)ccc2c1C(=O)NCCc1ccc(Cl)cc1`: the inhibition is over 50%.
As to `O=C(O)CCC(=O)c1ccc2ccccc2c1`, the inhibition is over 50%.
Consider `COc1cccc2c3c(ccc12)NC(=O)CC3`, for which the inhibition was over 50%.
On the same count and under the same terms, for `CCOC(=O)c1[nH]c2cc(Cl)ccc2c1C#Cc1ccccc1` the value was over 50%; for `CCOC(=O)c1cc(-c2ccccc2)c2cccc(O)c2c1`, over 50%.
The same measure, in the same setting: the value for `COc1ccc(C(O)c2[nH]c3ccccc3c2CCN)cc1` (stereo not drawn) was over 50%.
For the compound `Nc1[nH]c2ccccc2c1C(=O)NCCc1ccc(Cl)cc1Cl`, the inhibition was over 50%.

System in the next series: not listed separately
Kind of series: Solubility of the compound. Format: physicochemical.
On to `Nc1[nH]c2cc(Cl)ccc2c1C(=O)N1CCOCC1`, for which the solubility result is “Soluble”.

System in another series: not listed separately
Briefly: (§1) Inhibition of Streptococcus pyogenes SrtA deltaN81 mutant expressed in Escherichia coli BL21(DE3) using Abz-LPETA-Dap(Dnp) as substrate preincubated for 10 mins followed by substrate addition measured every min for 2.5 hrs by fluorimetric assay.
By IC50 is commonly meant the concentration needed to halve the response being measured. A higher IC50 goes with weaker potency. For `Nc1[nH]c2cc(Cl)ccc2c1C(=O)N1CCOCC1`, the IC50 stood at 10 µM.

The next series has as its system Streptococcus pyogenes. Described as §1.
On to `Nc1[nH]c2ccccc2c1C(=O)N1CCOCC1`, for which the inhibition result was “inactive”.
Take `Nc1[nH]c2ccccc2c1C(=O)N1CCCCC1`: the inhibition entry is “inactive”.
Still for that read-out and setting: for `O=C(Nc1[nH]c2ccccc2c1C(=O)N1CCOCC1)c1ccccc1` the value was “inactive”.

The next series relates to Staphylococcus aureus. Briefly: Inhibition of […] SrtA deltaN59 mutant expressed in Escherichia coli BL21(DE3) at 100 uM using Abz-LPETG-Dap(Dnp) as substrate preincubated for 10 mins followed by substrate addition measured every min for 2.5 hrs by fluorimetric assay.
Turning to `Nc1[nH]c2cc(Cl)ccc2c1C(=O)N1CCOCC1`, the inhibition entry is “inactive”.

In a further series the test system is Streptococcus pyogenes. Briefly: Mixed-type inhibition of Streptococcus pyogenes SrtA deltaN81 mutant expressed in Escherichia coli BL21(DE3) at 5 to 10 uM using Abz-LPETA-Dap(Dnp) as substrate preincubated for 10 mins followed by substrate addition measured every min for 2 hrs by fluorimetric assay relative to control.
Take `Nc1[nH]c2cc(Cl)ccc2c1C(=O)N1CCOCC1`: the inhibition result was “Active”.

System in a further series: not listed separately
Briefly: Binding affinity to NT-647 labeled Streptococcus pyogenes His-tagged SrtA deltaN81 mutant expressed in Escherichia coli BL21(DE3) by microscale thermophoresis method. For orientation: MST reads how a fluorescent partner responds to local heating, with and without ligand.
In general, Kd refers to the constant that tells how readily two partners part at equilibrium. Compound `Nc1[nH]c2cc(Cl)ccc2c1C(=O)N1CCOCC1` returned a Kd of 60 µM.

The test system of another series is Streptococcus pyogenes. Briefly: Induction of aggregation of NT-647 labeled Streptococcus pyogenes His-tagged SrtA deltaN81 mutant expressed in Escherichia coli BL21(DE3) by microscale thermophoresis method.
Regarding `Nc1[nH]c2cc(Cl)ccc2c1C(=O)N1CCOCC1`, the result was inactive.
